In the supplement of paper PMC10307832 one finds relative viability data, which are given here for six cell lines.

Holding throughout (assay): relative viability (nuclei count vs DMSO), 5 days (fraction); higher = more cells survive
Compound in the test “Idelalisib + Trametinib”: CC[C@H](Nc1ncnc2[nH]cnc12)c1nc2cccc(F)c2c(=O)n1-c1ccccc1 [Idelalisib] + CC(=O)Nc1cccc(-n2c(=O)n(C3CC3)c(=O)c3c(Nc4ccc(I)cc4F)n(C)c(=O)c(C)c32)c1 [Trametinib] (partner 0.02 µM)
Summed up: (§1)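 For relative viability, nuclei counts in treated wells were divided by those in vehicle wells. Lung cancer cell lines had been pin-tool dosed in 1536-well plates the day after seeding and cultured for 5 days, then fixed and stained in one step (final 0.05% Triton X-100, 1% formaldehyde, 1 ug/ml Hoechst) and imaged at 4×. Doses were one drug alone or a fixed anchor-drug dose plus five library-drug doses (not always all listed) in √10 steps, and values are duplicate-plate medians.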

Compound in the test “Idelalisib + AZD7762”: CC[C@H](Nc1ncnc2[nH]cnc12)c1nc2cccc(F)c2c(=O)n1-c1ccccc1 [Idelalisib] + NC(=O)Nc1cc(-c2cccc(F)c2)sc1C(=O)N[C@H]1CCCNC1 [AZD7762] (partner 0.2 µM)
In outline: as §1

Compound in the test “Pemetrexed + Palbociclib”: Nc1nc2[nH]cc(CCc3ccc(C(=O)N[C@@H](CCC(=O)O)C(=O)O)cc3)c2c(=O)[nH]1 [Pemetrexed] + CC(=O)c1c(C)c2cnc(Nc3ccc(N4CCNCC4)cn3)nc2n(C2CCCC2)c1=O [Palbociclib] (partner 0.5 µM)
In outline: as §1

Compound in the test “Pemetrexed + OSI-027”: Nc1nc2[nH]cc(CCc3ccc(C(=O)N[C@@H](CCC(=O)O)C(=O)O)cc3)c2c(=O)[nH]1 [Pemetrexed] + COc1cccc2cc(-c3nc([C@H]4CC[C@H](C(=O)O)CC4)n4ncnc(N)c34)[nH]c12 [OSI-027] (partner 0.5 µM)
Summed up:
as §1

In the case of NCI-H1944, the relative viability with Idelalisib + Trametinib (first compound 0.04 µM) came to 0.448; in the test with Idelalisib + Trametinib (first compound 0.1265 µM) it was 0.354; in the test with Idelalisib + Trametinib (first compound 0.4 µM), 0.336; with Idelalisib + Trametinib (first compound 1.265 µM) it was 0.352; with Idelalisib + Trametinib (first compound 4 µM), 0.318; with Idelalisib + AZD7762 (first compound 0.04 µM), 0.554. Also, the relative viability came to 0.501 with Idelalisib + AZD7762 (first compound 0.1265 µM); 0.457 in the test with Idelalisib + AZD7762 (first compound 0.4 µM); 0.2 with Idelalisib + AZD7762 (first compound 1.265 µM); 0.61 in the test with Idelalisib + AZD7762 (first compound 4 µM); 0.286 with Pemetrexed + Palbociclib (first compound 0.002 µM); 0.304 with Pemetrexed + Palbociclib (first compound 0.006325 µM). Moreover, the relative viability is 0.339 in the test with Pemetrexed + Palbociclib (first compound 0.02 µM); 0.312 with Pemetrexed + Palbociclib (first compound 0.06325 µM); 0.343 with Pemetrexed + Palbociclib (first compound 0.2 µM); 0.512 with Pemetrexed + OSI-027 (first compound 0.006325 µM); 0.43 with Pemetrexed + OSI-027 (first compound 0.02 µM); 0.405 in the test with Pemetrexed + OSI-027 (first compound 0.06325 µM). Further, the relative viability with Pemetrexed + OSI-027 (first compound 0.2 µM) stood at 0.403.
Turning to A-427, the relative viability with Idelalisib + Trametinib (first compound 0.04 µM) came to 0.843; with Idelalisib + Trametinib (first compound 0.1265 µM) it was 0.812; with Idelalisib + Trametinib (first compound 0.4 µM), 0.667; with Idelalisib + Trametinib (first compound 1.265 µM), 0.78; with Idelalisib + Trametinib (first compound 4 µM), 0.7; in the test with Idelalisib + AZD7762 (first compound 0.04 µM) it was 0.773. The relative viability with Idelalisib + AZD7762 (first compound 0.1265 µM) amounted to 0.748; with Idelalisib + AZD7762 (first compound 0.4 µM), 0.66; with Idelalisib + AZD7762 (first compound 1.265 µM), 0.442; with Idelalisib + AZD7762 (first compound 4 µM), 0.624; with Pemetrexed + Palbociclib (first compound 0.002 µM), 0.505; in the test with Pemetrexed + Palbociclib (first compound 0.006325 µM), 0.529. The relative viability with Pemetrexed + Palbociclib (first compound 0.02 µM) turned out to be 0.572; in the test with Pemetrexed + Palbociclib (first compound 0.06325 µM), 0.509; with Pemetrexed + Palbociclib (first compound 0.2 µM) it was 0.483; in the test with Pemetrexed + OSI-027 (first compound 0.002 µM) it was 0.422; with Pemetrexed + OSI-027 (first compound 0.006325 µM) it was 0.431; with Pemetrexed + OSI-027 (first compound 0.02 µM) it was 0.481. Further, the relative viability was 0.466 with Pemetrexed + OSI-027 (first compound 0.06325 µM) and 0.402 with Pemetrexed + OSI-027 (first compound 0.2 µM).
With NCI-H650, the relative viability was 1.08 in the test with Idelalisib + Trametinib (first compound 0.04 µM); 0.928 with Idelalisib + Trametinib (first compound 0.1265 µM); 0.888 with Idelalisib + Trametinib (first compound 0.4 µM); 1.09 with Idelalisib + Trametinib (first compound 1.265 µM); 0.848 in the test with Idelalisib + Trametinib (first compound 4 µM); 1.48 with Idelalisib + AZD7762 (first compound 0.04 µM). In addition, the relative viability with Idelalisib + AZD7762 (first compound 0.1265 µM) is 1.04; with Idelalisib + AZD7762 (first compound 0.4 µM), 0.79; with Idelalisib + AZD7762 (first compound 1.265 µM), 0.378; in the test with Idelalisib + AZD7762 (first compound 4 µM), 1.08; with Pemetrexed + Palbociclib (first compound 0.002 µM) it was 0.344; with Pemetrexed + Palbociclib (first compound 0.006325 µM), 0.298. Besides, the relative viability was found to be 0.348 with Pemetrexed + Palbociclib (first compound 0.06325 µM); 0.313 with Pemetrexed + Palbociclib (first compound 0.2 µM); 0.536 with Pemetrexed + OSI-027 (first compound 0.002 µM); 0.562 in the test with Pemetrexed + OSI-027 (first compound 0.006325 µM); 0.551 with Pemetrexed + OSI-027 (first compound 0.02 µM); 0.507 with Pemetrexed + OSI-027 (first compound 0.06325 µM). Moreover, the relative viability with Pemetrexed + OSI-027 (first compound 0.2 µM) worked out at 0.532.
Take NCI-H1755: the relative viability in the test with Idelalisib + Trametinib (first compound 0.04 µM) turned out to be 0.764; with Idelalisib + Trametinib (first compound 0.1265 µM) it was 0.773; with Idelalisib + Trametinib (first compound 0.4 µM) it was 0.745; with Idelalisib + Trametinib (first compound 1.265 µM), 0.674; in the test with Idelalisib + Trametinib (first compound 4 µM), 0.732; with Idelalisib + AZD7762 (first compound 0.04 µM), 0.386. The relative viability with Idelalisib + AZD7762 (first compound 0.1265 µM) is 0.437; with Idelalisib + AZD7762 (first compound 0.4 µM), 0.376; with Idelalisib + AZD7762 (first compound 1.265 µM), 0.31; in the test with Idelalisib + AZD7762 (first compound 4 µM) it was 0.381; with Pemetrexed + Palbociclib (first compound 0.002 µM) it was 0.488; with Pemetrexed + Palbociclib (first compound 0.006325 µM) it was 0.423. The relative viability in the test with Pemetrexed + Palbociclib (first compound 0.02 µM) amounted to 0.478; in the test with Pemetrexed + Palbociclib (first compound 0.06325 µM), 0.448; with Pemetrexed + Palbociclib (first compound 0.2 µM), 0.412; with Pemetrexed + OSI-027 (first compound 0.002 µM), 0.685; with Pemetrexed + OSI-027 (first compound 0.006325 µM) it was 0.797; with Pemetrexed + OSI-027 (first compound 0.02 µM), 0.782. Also, the values for the relative viability with Pemetrexed + OSI-027 (first compound 0.06325 µM) and with Pemetrexed + OSI-027 (first compound 0.2 µM) were 0.691 and 0.667, respectively.
As for NCI-H2085, the relative viability in the test with Idelalisib + Trametinib (first compound 0.04 µM) stood at 0.569; in the test with Idelalisib + Trametinib (first compound 0.1265 µM), 0.299; with Idelalisib + Trametinib (first compound 0.4 µM), 0.382; in the test with Idelalisib + Trametinib (first compound 1.265 µM), 0.369; with Idelalisib + Trametinib (first compound 4 µM), 0.327; in the test with Idelalisib + AZD7762 (first compound 0.04 µM), 0.951. Moreover, the relative viability with Idelalisib + AZD7762 (first compound 0.1265 µM) is 0.979; with Idelalisib + AZD7762 (first compound 0.4 µM), 0.887; with Idelalisib + AZD7762 (first compound 1.265 µM) it was 0.436; in the test with Idelalisib + AZD7762 (first compound 4 µM), 0.471; in the test with Pemetrexed + Palbociclib (first compound 0.002 µM), 0.457; with Pemetrexed + Palbociclib (first compound 0.006325 µM), 0.458. The relative viability with Pemetrexed + Palbociclib (first compound 0.02 µM) amounted to 0.495; with Pemetrexed + Palbociclib (first compound 0.06325 µM), 0.471; in the test with Pemetrexed + Palbociclib (first compound 0.2 µM), 0.464; with Pemetrexed + OSI-027 (first compound 0.002 µM) it was 0.653; with Pemetrexed + OSI-027 (first compound 0.006325 µM), 0.73; with Pemetrexed + OSI-027 (first compound 0.02 µM), 0.769. Moreover, the relative viability worked out at 0.85 with Pemetrexed + OSI-027 (first compound 0.06325 µM) and 0.848 with Pemetrexed + OSI-027 (first compound 0.2 µM).
In the case of HOP-62, the relative viability with Idelalisib + Trametinib (first compound 0.04 µM) came out at 0.345; with Idelalisib + Trametinib (first compound 0.1265 µM) it was 0.354; with Idelalisib + Trametinib (first compound 0.4 µM), 0.292; with Idelalisib + Trametinib (first compound 1.265 µM), 0.362; in the test with Idelalisib + Trametinib (first compound 4 µM), 0.247; with Idelalisib + AZD7762 (first compound 0.04 µM) it was 0.731. The relative viability in the test with Idelalisib + AZD7762 (first compound 0.1265 µM) came out at 0.706; with Idelalisib + AZD7762 (first compound 0.4 µM), 0.398; in the test with Idelalisib + AZD7762 (first compound 1.265 µM), 0.304; with Idelalisib + AZD7762 (first compound 4 µM), 0.545; with Pemetrexed + Palbociclib (first compound 0.002 µM), 0.363; in the test with Pemetrexed + Palbociclib (first compound 0.006325 µM), 0.479. Also, the relative viability with Pemetrexed + Palbociclib (first compound 0.02 µM) stood at 0.555; in the test with Pemetrexed + Palbociclib (first compound 0.06325 µM) it was 0.452; with Pemetrexed + Palbociclib (first compound 0.2 µM), 0.37; with Pemetrexed + OSI-027 (first compound 0.002 µM) it was 0.728; with Pemetrexed + OSI-027 (first compound 0.006325 µM) it was 0.856; in the test with Pemetrexed + OSI-027 (first compound 0.02 µM) it was 0.936. The relative viability in the test with Pemetrexed + OSI-027 (first compound 0.06325 µM) was 0.825; with Pemetrexed + OSI-027 (first compound 0.2 µM) it was 0.729.
